Data published in PubChem BioAssay (NCI).
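These data come from cells grown in 96-well plates and exposed to compound for 48 hours at five concentrations. TGI: total growth inhibition.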

Tests used:
Experiment in all cases: DTP human tumour cell line panel, 48 h
DU-145 prostate = test system: DU-145 prostate
CCRF-CEM leukemia = test system: CCRF-CEM leukemia
EKVX NSCLC = test system: EKVX NSCLC
HCT-116 colon = test system: HCT-116 colon
T-47D breast = test system: T-47D breast
HCT-15 colon = test system: HCT-15 colon
MALME-3M melanoma = test system: MALME-3M melanoma
LOX IMVI melanoma = test system: LOX IMVI melanoma
PC-3 prostate = test system: PC-3 prostate
UACC-62 melanoma = test system: UACC-62 melanoma
OVCAR-8 ovarian = test system: OVCAR-8 ovarian
KM12 colon = test system: KM12 colon
SNB-19 CNS = test system: SNB-19 CNS
MCF7 breast = test system: MCF7 breast
A549 NSCLC = test system: A549 NSCLC
HL-60(TB) leukemia = test system: HL-60(TB) leukemia
NCI-H226 lung = test system: NCI-H226 lung
OVCAR-4 ovarian = test system: OVCAR-4 ovarian
HOP-62 NSCLC = test system: HOP-62 NSCLC
NCI-H460 lung = test system: NCI-H460 lung

| Compound | TGI (DU-145 prostate) | TGI (CCRF-CEM leukemia) | TGI (EKVX NSCLC) | TGI (HCT-116 colon) | TGI (T-47D breast) | TGI (HCT-15 colon) | TGI (MALME-3M melanoma) | TGI (LOX IMVI melanoma) | TGI (PC-3 prostate) | TGI (UACC-62 melanoma) | TGI (OVCAR-8 ovarian) | TGI (KM12 colon) | TGI (SNB-19 CNS) | TGI (MCF7 breast) | TGI (A549 NSCLC) | TGI (HL-60(TB) leukemia) | TGI (NCI-H226 lung) | TGI (OVCAR-4 ovarian) | TGI (HOP-62 NSCLC) | TGI (NCI-H460 lung) |
| --- | --- | --- | --- | --- | --- | --- | --- | --- | --- | --- | --- | --- | --- | --- | --- | --- | --- | --- | --- | --- |
| CSC(=N/C=C/c1ccccc1)SC | > 100 µM | > 100 µM | > 100 µM | > 100 µM | > 100 µM | > 100 µM | > 100 µM | > 100 µM | > 100 µM | > 100 µM | > 100 µM | > 100 µM | > 100 µM | > 100 µM | > 100 µM | > 100 µM | > 100 µM | > 100 µM | > 100 µM | > 100 µM |
| CC1OC(OC2C(O[C@H]3CC[C@@H]4C(=CC[C@@H]5[C@@]4(C)C(=O)C[C@]4(C)[C@@H]([C@H](C)CC[C@@H](O)C(C)(C)O)CC[C@@]54C)C3(C)C)OC(CO)C(O)C2O)C(O)C(O)C1O (stereo not given in full) | > 100 µM | > 100 µM | > 100 µM | > 100 µM | > 100 µM | > 100 µM | > 100 µM | > 100 µM | > 100 µM | > 100 µM | > 100 µM | > 100 µM | > 100 µM | > 100 µM | > 100 µM | > 100 µM | > 100 µM | > 100 µM | > 100 µM | > 100 µM |
| CO[C@]1(c2ccc([N+](=O)[O-])cc2)Oc2ccccc2C(=O)[C@@]1(Nc1ccc(C=O)cc1)OC | > 10 µM | > 10 µM | > 10 µM | > 10 µM | > 10 µM | > 10 µM | > 10 µM | > 10 µM | > 10 µM | > 10 µM | > 10 µM | > 10 µM | > 10 µM | > 10 µM | > 10 µM | > 10 µM | > 10 µM | > 10 µM | > 10 µM | > 10 µM |
| COc1ccc(NC(=S)Nc2cc(C)cc(C)n2)cc1 | > 100 µM | > 100 µM | > 100 µM | > 100 µM | > 100 µM | > 100 µM | > 100 µM | > 100 µM | > 100 µM | > 100 µM | > 100 µM | > 100 µM | > 100 µM | > 100 µM | > 100 µM | > 100 µM | > 100 µM | > 100 µM | > 100 µM | > 100 µM |
| O=C1OCN(c2ccccc2)C12CCN(Cc1ccccc1)CC2 | > 100 µM | 48.7 µM | > 100 µM | > 100 µM | 63.8 µM | 94.6 µM | 43.8 µM | 30.4 µM | > 100 µM | 37.2 µM | > 100 µM | 47.2 µM | > 100 µM | > 100 µM | > 100 µM | > 100 µM | > 100 µM | > 100 µM | > 100 µM | 54.5 µM |
| O=C(C1OC1c1ccc(Cl)cc1)C12CC3CC(CC(C3)C1)C2 (stereo not given) | > 100 µM | 52.3 µM | 56.3 µM | 28.8 µM | > 100 µM | 82 µM | 69.8 µM | 16.6 µM | 79.9 µM | 45.1 µM | 32.9 µM | 41 µM | > 100 µM | 73.9 µM | 48.5 µM | 42.6 µM | 38.5 µM | 40 µM | 56.5 µM | 31.8 µM |
